# Source: publication PMC11602703 (Frontiers in Pharmacology, 2024)
# Where “and” joins values, the source holds several entries; their conditions need not be identical. Equal entries are not always repeated. Entries after “also recorded” stand apart in the source; their conditions may differ. Where two headings read alike, the source gives them in different places.
# What was measured:
# HCT116 cells [1] = assay: Cell cycle analysis by flow cytometry (PI), HCT116; type: cell-based, human; settings: for sub-G0/G1, HCT116 cells, plus SAINT-Protein: 72 h, transfected with SAINT-Protein; for % of cells G0/G1, HCT116 cells / % of cells G2/M, HCT116 cells / % of cells S, HCT116 cells / % of cells sub G0/G1, HCT116 cells: 72 hr, E7 […], 5FU 5µM, with or without SAINT-Protein
# Protocol: (§1) A slight opalescence indicates optimal mixing of the components. […] All experiments were conducted in duplicate. […] Quantitative measurements of the cell cycle phase distribution were performed by flow cytometry. Cells were then suspended in 0.5 mL of hypotonic fluorochrome solution (50 μg/mL PI, 0.1% sodium citrate, 0.1% Triton X-100). […] The percentages of nuclei in the different phases of the cell cycle (G0/G1, S and G2/M) were calculated using a DNA cell cycle analysis software (Cell-Fit, Becton Dickinson). A minimum of 10^4 cells was analyzed for each sample.
# A2780 cells [2] = assay: Cell cycle analysis by flow cytometry (PI), A2780; type: cell-based, human; settings: 72 hr, Supplementary Figure S1
# Protocol: as §1
# HCT116 cells [3] = assay: Cell growth, crystal violet assay, HCT116; type: cell-based; settings: Homo sapiens, HCT-116, 72 h, read-out: Cellular IC50 values HCT116
# HT29 cells = assay: Cell growth, crystal violet assay, HT29; type: cell-based, human; settings: for effect of SAINT-Protein transfection on cell survival, HT29: 72 h, Figure 5C
# [4] = test system: ovarian and colorectal cancer cell lines (A2780, A2780/CP, IGROV-1, HT29, HCT116); assay: Cell growth, crystal violet assay, statements over several cancer cell lines; type: cell-based, human; settings: for IC50: Homo sapiens
# recombinant hTS = target: T1, recombinant hTS (Homo sapiens, UniProt P04818); assay: hTS enzyme inhibition, spectrophotometric assay at 340 nm; type: biochemical; settings: for IC50: IC50 Recombinant hTS, 100 nM hTS, 50 µM mTHF, 110 µM dUMP, 60 min incubation at 37°C, standard error ±20%; for Ki: Ki (text of b40)
# T1 construct: made in house; host or cells: E. coli BL21 (DE3), pQE80L plasmid
# IGROV-1 cells = assay: cells; type: cell-based; settings: Homo sapiens, IGROV-1, 72 h, read-out: Cellular IC50 values IGROV-1, 72 h-treatment, compound alone
# human pancreatic cancer = settings: compared with 5-FU; ref Costantino et al., 2022; cited from earlier work
# A2780/CP cells = assay: Cell growth, crystal violet assay, A2780/CP; type: cell-based, human
# A2780 cells [5] = assay: Cell growth, crystal violet assay, A2780; settings: for IC50: Homo sapiens, A2780, 72 h
# [6] = test system: ABC transporters (P-glycoprotein, P-gp) and BCRP; settings: in vitro; ref Vaidyanathan et al., 2016; cited from earlier work
# P-gp = settings: co-treatment with vincristine; ref Robey et al., 2004; Shafran et al., 2005; cited from earlier work
# [7] = read-out: cancer cell growth inhibition potency (range over cell lines)
# T1 sequence (P04818 whole entry): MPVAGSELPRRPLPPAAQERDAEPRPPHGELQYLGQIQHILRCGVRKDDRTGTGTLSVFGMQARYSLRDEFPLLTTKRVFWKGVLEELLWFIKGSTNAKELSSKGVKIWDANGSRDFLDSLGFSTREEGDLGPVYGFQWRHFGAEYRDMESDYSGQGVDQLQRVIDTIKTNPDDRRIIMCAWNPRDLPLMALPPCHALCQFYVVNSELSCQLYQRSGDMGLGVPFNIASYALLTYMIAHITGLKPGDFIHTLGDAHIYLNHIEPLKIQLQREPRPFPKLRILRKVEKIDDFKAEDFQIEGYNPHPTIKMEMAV
smiles,measurement,setting,value
"O=c1[nH]cc(F)c(=O)[nH]1 [Compound 5-FU, 5-fluorouracil, reference compound]","sub-G0/G1, HCT116 cells, plus SAINT-Protein",HCT116 cells [1],about 40%
same,"% of cells G0/G1, HCT116 cells",HCT116 cells [1],54.45%
same,"% of cells G2/M, HCT116 cells",HCT116 cells [1],14.75%
same,"% of cells S, HCT116 cells",HCT116 cells [1],12.55%
same,"% of cells sub G0/G1, HCT116 cells",HCT116 cells [1],15.1%
same,"effect of SAINT-Protein transfection on sub-G0/G1 phase, A2780 cells",A2780 cells [2],did not benefit from SAINT-Protein transfection
O=C(CSc1ccc([N+](=O)[O-])cc1)Nc1ccc(C(=O)O)cc1 [Compound E1],IC50,HCT116 cells [3],> 100 µM
same,IC50,"HT29 cells; Homo sapiens, HT-29, 72 h, read-out: Cellular IC50 values HT29",> 100 µM
same,cellular activity at 100 µM,"[4]; 100 µM, five cancer cell lines of Table 1",no observed cellular activity
same,IC50,"[4]; read-out: IC50 with SAINT-Protein, OC cell lines",20 to 40 µM
same,"effect of SAINT-Protein transfection on cytotoxic activity, tested cell lines",[4]; with SAINT-Protein versus compound alone,benefits considerably; also recorded: showed cytotoxic activity when associated with the SAINT-Protein
same,IC50,recombinant hTS,8 µM and 8.2 µM
"NC(=O)c1ccc(NC(=O)C(Sc2ccc([N+](=O)[O-])cc2)c2ccccc2)cc1 (stereo not shown) [Compound E5, 2-Phenyl-2-(4-nitrophenylthio)-N-(4-carboxamidophenyl)acetamide]",IC50,IGROV-1 cells,69.9 ± 8 µM
same,"effect of SAINT-Protein transfection on cell survival, HT29",HT29 cells,no significant effect
same,interaction with elacridar (synergism quotient analysis),"[4]; 200 nM elacridar 2 h pre-treatment, 72 h, A2780, IGROV-1, HT29",synergized by elacridar in all cell lines tested
same,"effect of SAINT-Protein transfection on cell killing, A2780 and A2780/CP","[4]; A2780 and A2780/CP, 72 h, Figure 5A, B",not significantly enhanced
same,IC50,[4]; [7],25 to 70 µM
same,Ki,recombinant hTS,40 µM
"CS(=O)(=O)c1ccc2nc(NC(=O)C(Sc3ccc([N+](=O)[O-])cc3)c3ccccc3)sc2c1 (stereo not shown) [Compound E7, phenyl-2-(4-nitrophenylthio)-N-(6-methanesulfonylbenzothiazol-2-yl)acetamide]","sub-G0/G1, HCT116 cells, plus SAINT-Protein",HCT116 cells [1],~60%
same,"% of cells G0/G1, HCT116 cells",HCT116 cells [1],58.15%
same,"% of cells G2/M, HCT116 cells",HCT116 cells [1],11.67%
same,"% of cells S, HCT116 cells",HCT116 cells [1],10.65%
same,"% of cells sub G0/G1, HCT116 cells",HCT116 cells [1],17.53%
same,anticancer profile in mouse model,human pancreatic cancer,superior to that of 5-FU
same,IC50,"A2780/CP cells; Homo sapiens, A2780C/P, 72 h, read-out: IC50 A2780/CP cells, without SAINT-Protein (Figure 4A)",15.3 ± 5 µM
same,"SQ with SAINT-Protein, A2780/CP cells, 5 μM",A2780/CP cells; compound 5 μM + SAINT-Protein,1.54±0.45
same,"SQ with SAINT-Protein, A2780/CP cells, 12 μM",A2780/CP cells; compound 12 μM + SAINT-Protein,1.34±0.1
same,"SQ with SAINT-Protein, A2780/CP cells, 25 μM",A2780/CP cells; compound 25 μM + SAINT-Protein,1.15±0.03
same,"effect of SAINT-Protein transfection on cell survival, HT29",HT29 cells,more favoured by the presence of SAINT-Protein
same,IC50,[4]; [7],10 to 37 µM
same,IC50,"A2780 cells [5]; read-out: IC50 A2780 cells, with SAINT-Protein (Figure 4A)",5.6 µM
same,IC50,"A2780 cells [5]; read-out: IC50 A2780 cells, without SAINT-Protein (Figure 4A)",10.9 µM
same,"SQ with SAINT-Protein, A2780 cells, 5 μM",A2780 cells [5]; compound 5 μM + SAINT-Protein,1.10±0.05
same,"SQ with SAINT-Protein, A2780 cells, 12 μM",A2780 cells [5]; compound 12 μM + SAINT-Protein,1.07±0.01
same,"SQ with SAINT-Protein, A2780 cells, 25 μM",A2780 cells [5]; compound 25 μM + SAINT-Protein,0.90±0.1
same,"effect of SAINT-Protein transfection on sub-G0/G1 phase, A2780 cells",A2780 cells [2],significantly increased the percentage of cells in the sub-G0/G1 phase
same,Ki,recombinant hTS,7 µM
"COc1cc2c(cc1OC)CN(CCc1ccc(NC(=O)c3cccc4c(=O)c5cccc(OC)c5[nH]c34)cc1)CC2 [Elacridar, N-[4-[2-(6,7-dimethoxy-3,4-dihydro-1H-isoquinolin-2-yl)ethyl]phenyl]-5-methoxy-9-oxo-10H-acridine-4-carbox amide]",concentration reversing multidrug resistance,[6],20 to 100 nM
"O=c1[nH]c(=O)n([C@H]2C[C@H](O)[C@@H](COP(=O)(O)O)O2)cc1F [FdUMP, 5-fluorodeoxyuridine-5′-monophosphate, reference compound]",IC50,recombinant hTS,0.8 µM
"COc1cc2c(cc1OC)CN(CCc1ccc(NC(=O)c3cc(OC)c(OC)cc3NC(=O)c3cnc4ccccc4c3)cc1)CC2 [Tariquidar, 3-Quinolinecarboxamide, N-[2-[[[4-[2-(3,4-dihydro-6,7-dimethoxy-2(1H)-isoquinolinyl)ethyl]phenyl]amino]carbonyl]-4,5-dimethoxyphenyl]-]",concentration giving complete reversal of resistance,P-gp,25 to 80 nM
